Data taken from ChEMBL document CHEMBL5523702, “Synthesis and structure-activity optimization of azepane-containing derivatives as PTPN2/PTPN1 inhibitors” (Eur J Med Chem, 2024).
Converted amounts (≈) assume the structure as drawn.

Legend:
[1] = biological target: T1, Tyrosine-protein phosphatase non-receptor type 2 (Homo sapiens, UniProt P17706); assay: Inhibition of human PTPN2 using DiFMUP as substrate by fluorescence based phosphatase assay
T1 sequence (P17706 whole entry): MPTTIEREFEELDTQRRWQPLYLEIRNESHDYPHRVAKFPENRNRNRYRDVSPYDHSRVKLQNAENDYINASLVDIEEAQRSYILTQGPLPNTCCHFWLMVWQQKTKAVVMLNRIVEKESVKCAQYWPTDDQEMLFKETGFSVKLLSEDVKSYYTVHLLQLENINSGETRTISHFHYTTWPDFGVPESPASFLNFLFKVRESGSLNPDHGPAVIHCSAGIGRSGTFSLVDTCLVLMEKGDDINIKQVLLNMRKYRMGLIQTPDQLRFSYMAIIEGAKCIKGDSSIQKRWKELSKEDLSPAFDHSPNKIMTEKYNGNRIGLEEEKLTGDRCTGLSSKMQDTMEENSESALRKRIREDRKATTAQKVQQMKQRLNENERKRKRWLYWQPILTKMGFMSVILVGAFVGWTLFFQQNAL

[2] = Inhibition of PTPN2 in IFN-gamma induced mouse B16-F10 cells; type: cell-based
[3] = Half life in mouse at 10 mg/kg, po; type: ADME, organism-based; settings: in vivo
[4] = Cmax in mouse at 10 mg/kg, po; type: ADME, organism-based; settings: in vivo
[5] = AUC (0 to t) in mouse at 10 mg/kg, po; type: ADME, organism-based; settings: in vivo
[6] = Apparent permeability of compound in human Caco-2 cells across apical to basolateral side
[7] = Plasma protein binding in human assessed as unbound fraction; type: ADME, cell-free
[8] = Plasma protein binding in mouse assessed as unbound fraction; type: ADME, cell-free
[9] = Plasma protein binding in rat assessed as unbound fraction; type: ADME, cell-free
[10] = Half life in mouse at 1 mg/kg, iv; type: ADME, organism-based; settings: in vivo
[11] = Cmax in mouse at 1 mg/kg, iv; type: ADME, organism-based; settings: in vivo
[12] = AUC (0 to t) in mouse at 1 mg/kg, iv; type: ADME, organism-based; settings: in vivo
[13] = Kinetic solubility of the compound at pH 7.4; settings: buffer
[14] = Apparent permeability of compound in human Caco-2 cells across basolateral to apical side
[15] = biological target: T2, Tyrosine-protein phosphatase non-receptor type 1 (Homo sapiens, UniProt P18031); assay: Inhibition of human PTP1B
T2 sequence (P18031 whole entry): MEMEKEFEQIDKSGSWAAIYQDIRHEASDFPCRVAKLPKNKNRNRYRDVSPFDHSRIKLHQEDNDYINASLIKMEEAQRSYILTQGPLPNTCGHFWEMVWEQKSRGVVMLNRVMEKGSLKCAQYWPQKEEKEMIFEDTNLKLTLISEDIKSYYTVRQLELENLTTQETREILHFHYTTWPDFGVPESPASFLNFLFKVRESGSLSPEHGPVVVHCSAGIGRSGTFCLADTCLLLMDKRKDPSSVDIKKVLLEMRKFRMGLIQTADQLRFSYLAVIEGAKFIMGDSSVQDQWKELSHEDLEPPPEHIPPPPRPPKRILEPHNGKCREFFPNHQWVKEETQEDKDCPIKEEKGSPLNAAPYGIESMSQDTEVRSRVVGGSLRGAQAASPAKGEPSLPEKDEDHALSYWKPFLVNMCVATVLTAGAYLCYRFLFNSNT

[16] = biological target: T1, Tyrosine-protein phosphatase non-receptor type 2; assay: Binding affinity to human PTPN2 assessed as dissociation constant measured upto 300 secs by SPR analysis
[17] = Clearance in mouse assessed as liver blood flow at 1 mg/kg, iv; type: ADME, organism-based; settings: in vivo
[18] = Volume of distribution at steady state in mouse at 1 mg/kg, iv; type: ADME, organism-based; settings: in vivo, read-out: Vdss
[19] = Oral bioavailability in mouse at 10 mg/kg; type: ADME, organism-based; settings: in vivo
[20] = Cmax in mouse at 50 mg/kg, po; type: ADME, organism-based; settings: in vivo
[21] = AUC (0 to t) in mouse at 50 mg/kg, po; type: ADME, organism-based; settings: in vivo
[22] = Half life in mouse at 50 mg/kg, po; type: ADME, organism-based; settings: in vivo
[23] = Oral bioavailability in mouse at 50 mg/kg; type: ADME, organism-based; settings: in vivo
[24] = Clearance in rat assessed as liver blood flow at 1 mg/kg, iv; type: ADME, organism-based; settings: in vivo
[25] = Volume of distribution at steady state in rat at 1 mg/kg, iv; type: ADME, organism-based; settings: in vivo, read-out: Vdss
[26] = Cmax in rat at 10 mg/kg, po; type: ADME, organism-based; settings: in vivo
[27] = AUC (0 to t) in rat at 10 mg/kg, po; type: ADME, organism-based; settings: in vivo
[28] = Half life in rat at 10 mg/kg, po; type: ADME, organism-based; settings: in vivo
[29] = Oral bioavailability in rat at 10 mg/kg; type: ADME, organism-based; settings: in vivo
[30] = Clearance in dog assessed as liver blood flow at 1 mg/kg, iv; type: ADME, organism-based, Canis lupus familiaris; settings: in vivo
[31] = Volume of distribution at steady state in dog at 1 mg/kg, iv; type: ADME, organism-based, Canis lupus familiaris; settings: in vivo, read-out: Vdss
[32] = Cmax in dog at 2 mg/kg, po; type: ADME, organism-based, Canis lupus familiaris; settings: in vivo
[33] = AUC (0 to t) in dog at 2 mg/kg, po; type: ADME, organism-based, Canis lupus familiaris; settings: in vivo
[34] = Half life in dog at 2 mg/kg, po; type: ADME, organism-based, Canis lupus familiaris; settings: in vivo
[35] = Oral bioavailability in dog at 2 mg/kg; type: ADME, organism-based, Canis lupus familiaris; settings: in vivo
[36] = Toxicity in C57BL/6J mouse assessed as effect on body weight at 30 mg/kg, po BID measured after 19 days; type: organism-based; settings: in vivo, 456 h, time 19 day
MC-38 = assay: Antitumor activity in mouse MC38 cells xenografted in C57BL/6J mouse model assessed as tumor growth inhibition at 30 mg/kg, po BID administered for 19 days relative to control; type: functional; settings: MC-38, 456 h, time 19 day, read-out: TGI
[37] = Solubility of compound in FeSSIF at pH 7.4
[38] = Solubility of compound in FaSSIF at pH 7.4
[39] = Efflux ratio of apparent permeability in human Caco-2 cells across basolateral to apical side over apical to basolateral side

CC1Cc2c(cc(O)c(N3CC(=O)NS3(=O)=O)c2F)CCN1 (stereo in doubt; 10a)
IC50 [1]: 5 nM | IC50 ([2]; Mus musculus, B16-F10): 276 nM

CC1Cc2c(cc(O)c(N3CC(=O)NS3(=O)=O)c2F)CCN1CC1CC1 (racemic)
IC50 [1]: 28.1 nM | IC50 ([2]; Mus musculus, B16-F10): 1030 nM

CC1Cc2c(cc(O)c(N3CC(=O)NS3(=O)=O)c2F)CCN1 (racemic)
half-life [3]: 1.25 h | Cmax [4]: 392 ng/mL | AUC(0-t) [5]: 1360 ng·h/mL

O=C1CN(c2c(O)cc3c(c2F)CCN(CCCC2CC2)CC3)S(=O)(=O)N1
IC50 [1]: 4.5 nM | IC50 ([2]; Mus musculus, B16-F10): 247 nM | half-life [3]: 4.55 h | Cmax [4]: 621 ng/mL | AUC(0-t) [5]: 3480 ng·h/mL

CN1CCc2cc(O)c(N3CC(=O)NS3(=O)=O)c(F)c2CC1
IC50 [1]: 4.5 nM | IC50 ([2]; Mus musculus, B16-F10): 461 nM | Papp A→B [6]: < 0.48 ×10⁻⁶ cm/s | fraction unbound [7]: 0.998 | fraction unbound [8]: 0.852 | fraction unbound [9]: 0.874 | half-life [10]: 0.9 h | Cmax [11]: 3200 ng/mL | AUC(0-t) [12]: 1490 ng·h/mL | half-life [3]: 2.22 h | Cmax [4]: 2290 ng/mL | AUC(0-t) [5]: 7980 ng·h/mL

CCC1Cc2c(cc(O)c(N3CC(=O)NS3(=O)=O)c2F)CCN1 (racemic)
IC50 [1]: 9.73 nM | IC50 ([2]; Mus musculus, B16-F10): 425 nM

O=C1CN(c2c(O)cc3c(c2F)CCN(CC2CC2)CC3)S(=O)(=O)N1
IC50 [1]: 6.04 nM | IC50 ([2]; Mus musculus, B16-F10): 399 nM | solubility kinetic [13]: 202 µM (≈ 74.6 µg/mL) | Papp A→B [6]: 0.28 ×10⁻⁶ cm/s | Papp B→A [14]: 0.18 ×10⁻⁶ cm/s | fraction unbound [7]: 0.638 | fraction unbound [8]: 0.801 | half-life [3]: 4.34 h | Cmax [4]: 899 ng/mL | AUC(0-t) [5]: 5140 ng·h/mL

CC1Cc2c(cc(O)c(N3CC(=O)NS3(=O)=O)c2F)CCN1C (racemic)
IC50 [1]: 17.4 nM | IC50 ([2]; Mus musculus, B16-F10): 669 nM

O=C1CN(c2c(O)cc3c(c2F)CCN(CCC2CC2)CC3)S(=O)(=O)N1
IC50 [1]: 4.3 nM | IC50 ([2]; Mus musculus, B16-F10): 117 nM | half-life [3]: 4.64 h | Cmax [4]: 328 ng/mL | AUC(0-t) [5]: 1320 ng·h/mL

CCN1CCc2cc(O)c(N3CC(=O)NS3(=O)=O)c(F)c2CC1
IC50 [15]: 3.09 nM | IC50 [1]: 9.3 nM | IC50 ([2]; Mus musculus, B16-F10): 212 nM | fraction unbound [7]: 0.804 | fraction unbound [8]: 0.884 | fraction unbound [9]: 0.815 | half-life [3]: 2.37 h | Cmax [4]: 4750 ng/mL | AUC(0-t) [5]: 20900 ng·h/mL | Kd [16]: 8.7 nM | LBF [17]: 12.7% | Vd [18]: 0.4 L/kg | bioavailability [19]: 140% | Cmax [20]: 17800 ng/mL | AUC(0-t) [21]: 69200 ng·h/mL | half-life [22]: 2.1 h | bioavailability [23]: 93% | LBF [24]: 15% | Vd [25]: 0.26 L/kg | Cmax [26]: 368 ng/mL | AUC(0-t) [27]: 1940 ng·h/mL | half-life [28]: 2.37 h | bioavailability [29]: 19% | LBF [30]: 14.1% | Vd [31]: 0.35 L/kg | Cmax [32]: 402 ng/mL | AUC(0-t) [33]: 1430 ng·h/mL | half-life [34]: 1.31 h | bioavailability [35]: 19% | Activity [36]: Non-Toxic | inhibition in vivo at 30 mg/kg (MC-38): 89%

CCC1Cc2c(cc(O)c(N3CC(=O)NS3(=O)=O)c2F)CCN1C (racemic)
IC50 [1]: 75.5 nM | IC50 ([2]; Mus musculus, B16-F10): 17700 nM

CC(C)N1CCc2cc(O)c(N3CC(=O)NS3(=O)=O)c(F)c2CC1
IC50 [1]: 9.2 nM | IC50 ([2]; Mus musculus, B16-F10): 378 nM

CC(C)CCN[C@@H]1CCc2cc(O)c(N3CC(=O)NS3(=O)=O)c(F)c2C1 [OSUNPROTAFIB]
IC50 [15]: 0.69 nM | solubility [37]: 223 µM (≈ 86 µg/mL) | IC50 [1]: 2.2 nM | IC50 ([2]; Mus musculus, B16-F10): 44 nM | solubility kinetic [13]: 204 µM (≈ 78.6 µg/mL) | Papp A→B [6]: 1.43 ×10⁻⁶ cm/s | Papp B→A [14]: 0.093 ×10⁻⁶ cm/s | fraction unbound [7]: 0.585 | fraction unbound [8]: 0.978 | fraction unbound [9]: 0.896 | half-life [10]: 1.13 h | Cmax [11]: 1860 ng/mL | AUC(0-t) [12]: 851 ng·h/mL | half-life [3]: 4.21 h | Cmax [4]: 78 ng/mL | AUC(0-t) [5]: 903 ng·h/mL | solubility [38]: 206 µM (≈ 79.4 µg/mL) | efflux ratio [39]: 0.065 | LBF [17]: 22.1% | Vd [18]: 0.68 L/kg | bioavailability [19]: 11% | Cmax [20]: 278 ng/mL | AUC(0-t) [21]: 3820 ng·h/mL | half-life [22]: 4.86 h | bioavailability [23]: 9% | LBF [24]: 24.9% | Vd [25]: 0.33 L/kg | Cmax [26]: 38 ng/mL | AUC(0-t) [27]: 173 ng·h/mL | bioavailability [29]: 1.4% | LBF [30]: 20.9% | Vd [31]: 0.31 L/kg | Cmax [32]: 67 ng/mL | AUC(0-t) [33]: 319 ng·h/mL | half-life [34]: 3.41 h | bioavailability [35]: 6%

CC1Cc2c(cc(O)c(N3CC(=O)NS3(=O)=O)c2F)CCN1 (stereo in doubt; 10b)
IC50 [1]: 17.4 nM | IC50 ([2]; b16-f10): 455 nM

O=C1CN(c2c(O)cc3c(c2F)CCN(CC(F)F)CC3)S(=O)(=O)N1
IC50 [1]: 100 nM | IC50 ([2]; Mus musculus, B16-F10): 5330 nM

O=C1CN(c2c(O)cc3c(c2F)CCNCC3)S(=O)(=O)N1
IC50 [1]: 19.7 nM | IC50 ([2]; Mus musculus, B16-F10): 350 nM
